Assay results taken from the supplement of paper PMC11061612.

Experiments:
Assay in all cases: combination Emax (second highest fraction inhibited in the dose matrix, 72 h); higher = more inhibition; extreme values may be limits of the assay
[1] = test system: MOLT-13 (T-Lymphoblastic Leukemia)
In short: (§1)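 After 24 hours at 37°C and 5% CO2 in 1536-well plates, cells in DMEM/F12 or RPMI plus 10% FBS received two-drug dose matrices for 72 hours. Viability came from CellTiter-Glo 2.0 luminescence and was scaled as inhibition, anchored at 0 by vehicle wells and at 1 by blank wells. Combination Emax is taken as the second-highest inhibition in the matrix, and Bliss excess as the observed combination effect less EA + EB − EA·EB, with EA and EB the single-agent effects.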

[2] = test system: NMC-G1 (Low Grade Glioma)
In short: as §1

[3] = test system: NCI-H226 (Mesothelioma)
In short: as §1

[4] = test system: SNU-407 (Colorectal Carcinoma)
In short: as §1

[5] = test system: OAW-28 (Ovarian Carcinoma)
In short: as §1

[6] = test system: SAT (Head and Neck Carcinoma)
In short: as §1

[7] = test system: PA-TU-8988T (Pancreatic Carcinoma)
In short: as §1

[8] = test system: NCI-H1963 (Small Cell Lung Carcinoma)
In short: as §1

[9] = test system: SUP-M2 (T-Cell Non-Hodgkin's Lymphoma)
In short: as §1

[10] = test system: P30-OHK (B-Lymphoblastic Leukemia)
In short: as §1

[11] = test system: P32-ISH (Burkitt's Lymphoma)
In short: as §1

[12] = test system: CPC-N (Small Cell Lung Carcinoma)
In short: as §1

[13] = test system: NCI-H1876 (Small Cell Lung Carcinoma)
In short: as §1

[14] = test system: COR-L88 (Small Cell Lung Carcinoma)
In short: as §1

[15] = test system: UACC-257 (Melanoma)
In short: as §1

[16] = test system: DBTRG-05MG (Glioblastoma)
In short: as §1

[17] = test system: CL-11 (Colorectal Carcinoma)
In short: as §1

[18] = test system: SNU-C2B (Colorectal Carcinoma)
In short: as §1

[19] = test system: ES6 (Ewing's Sarcoma)
In short: as §1

[20] = test system: MDA-MB-415 (Breast Carcinoma)
In short: as §1

Row | SMILES | combination Emax [1] | combination Emax [2] | combination Emax [3] | combination Emax [4] | combination Emax [5] | combination Emax [6] | combination Emax [7] | combination Emax [8] | combination Emax [9] | combination Emax [10] | combination Emax [11] | combination Emax [12] | combination Emax [13] | combination Emax [14] | combination Emax [15] | combination Emax [16] | combination Emax [17] | combination Emax [18] | combination Emax [19] | combination Emax [20]
1 | Cc1c2c(nn1C)CSCc1cc(n(C)n1)CSc1cc(c3ccccc3c1)OCCCc1c(C(=O)O)n(C)c3c-2c(Cl)ccc13 [AZD5991] + C=CCn1c(=O)c2cnc(Nc3ccc(N4CCN(C)CC4)cc3)nc2n1-c1cccc(C(C)(C)O)n1 [AZD1775] (first compound max 1 µM, partner max 1 µM) | 1 | 0.425 | 0.269 | 0.796 | 0.347 | 0.829 | 0.891 | 0.945 | 1 | 0.875 | 1 | 0.967 | 0.992 | 0.744 | 0.294 | 0.262 | 0.507 | 0.497 | 0.386 | 0.404
2 | Cc1c2c(nn1C)CSCc1cc(n(C)n1)CSc1cc(c3ccccc3c1)OCCCc1c(C(=O)O)n(C)c3c-2c(Cl)ccc13 [AZD5991] + CC1(C)CCC(CN2CCN(c3ccc(C(=O)NS(=O)(=O)c4ccc(NCC5CCOCC5)c([N+](=O)[O-])c4)c(Oc4cnc5[nH]ccc5c4)c3)CC2)=C(c2ccc(Cl)cc2)C1 [Venetoclax] (first compound max 1 µM, 7x7, partner max 1 µM) | 1 | 0.157 | 0.196 | 0.717 | 0.687 | 0.703 | 0.151 | 0.824 | 0.994 | 0.996 | 1 | 0.289 | 0.881 | 0.817 | 0.308 | 0.158 | 0.137 | 0.201 | 0.255 | 0.73
3 | Cc1c2c(nn1C)CSCc1cc(n(C)n1)CSc1cc(c3ccccc3c1)OCCCc1c(C(=O)O)n(C)c3c-2c(Cl)ccc13 [AZD5991] + C[C@@H]1COCCN1C2=NC(=NC(=C2)C3(CC3)[S@](=N)(=O)C)C4=C5C=CNC5=NC=C4 [AZD6738] (first compound max 1 µM, 7x7, partner max 10 µM) | 1 | 0.377 | 0.193 | 0.811 | 0.52 | 0.79 | 0.345 | 0.885 | 1 | 0.996 | 1 | 0.874 | 0.97 | 0.671 | 0.252 | 0.232 | 0.645 | 0.49 | 0.445 | 0.554
4 | Cc1c2c(nn1C)CSCc1cc(n(C)n1)CSc1cc(c3ccccc3c1)OCCCc1c(C(=O)O)n(C)c3c-2c(Cl)ccc13 [AZD5991] + C[C@@H](Nc1cc(F)cc(F)c1)c1cc(C(=O)N(C)C)cc2c(=O)cc(N3CCOCC3)oc12 [AZD8186] (first compound max 1 µM, 7x7, partner max 3 µM) | 1 | 0.224 | 0.245 | 0.672 | 0.418 | 0.747 | 0.45 | 0.437 | 0.996 | 0.805 | 1 | 0.294 | 0.711 | 0.221 | 0.28 | 0.266 | 0.155 | 0.177 | 0.354 | 0.931
5 | Cc1c2c(nn1C)CSCc1cc(n(C)n1)CSc1cc(c3ccccc3c1)OCCCc1c(C(=O)O)n(C)c3c-2c(Cl)ccc13 [AZD5991] + Cc1cc2ncnn2cc1Nc1ncc2c(n1)n(C1CCOCC1)c(=O)n2C [AZD7648] (first compound max 1 µM, 7x7, partner max 10 µM) | 1 | 0.171 | 0.203 | 0.675 | 0.264 | 0.664 | 0.319 | 0.334 | 1 | 0.649 | 1 | 0.245 | 0.629 | 0.297 | 0.244 | 0.214 | 0.133 | 0.158 | 0.334 | 0.619
6 | Cc1c2c(nn1C)CSCc1cc(n(C)n1)CSc1cc(c3ccccc3c1)OCCCc1c(C(=O)O)n(C)c3c-2c(Cl)ccc13 [AZD5991] + Cn1cnc2c(F)c(Nc3ccc(Br)cc3Cl)c(C(=O)NOCCO)cc21 [Selumetinib] (first compound max 1 µM, 7x7, partner max 3 µM) | 1 | 0.31 | 0.224 | 0.789 | 0.352 | 0.803 | 0.393 | 0.427 | 1 | 0.744 | 1 | 0.237 | 0.748 | 0.17 | 0.817 | 0.344 | 0.525 | 0.356 | 0.209 | 0.398
7 | Cc1cc2ncnn2cc1Nc1ncc2c(n1)n(C1CCOCC1)c(=O)n2C [AZD7648] + C=CCn1c(=O)c2cnc(Nc3ccc(N4CCN(C)CC4)cc3)nc2n1-c1cccc(C(C)(C)O)n1 [AZD1775] (first compound max 10 µM, partner max 1 µM) | 0.953 | 0.327 | 0.297 | 0.446 | 0.401 | 0.623 | 0.749 | 0.873 | 0.991 | 0.754 | 1 | 0.931 | 0.976 | 0.545 | 0.226 | 0.343 | 0.638 | 0.551 | 0.505 | 0.488
8 | Cc1cc2ncnn2cc1Nc1ncc2c(n1)n(C1CCOCC1)c(=O)n2C [AZD7648] + CCN(CCO)CCCOc1ccc2c(Nc3cc(CC(=O)Nc4cccc(F)c4)[nH]n3)ncnc2c1 [AZD2811] (first compound max 10 µM, 7x7, partner max 1 µM) | 0.973 | 0.279 | 0.253 | 0.376 | 0.217 | 0.376 | 0.33 | 0.866 | 0.932 | 0.85 | 0.935 | 0.795 | 0.794 | 0.244 | 0.278 | 0.228 | 0.276 | 0.224 | 0.407 | 0.472
9 | Cc1cc2ncnn2cc1Nc1ncc2c(n1)n(C1CCOCC1)c(=O)n2C [AZD7648] + CN(C)CCCOc1ccc(-c2ccc3ncc4c(c3c2)n(C2CCOCC2)c(=O)n4C)cn1 [AZD0156] (first compound max 10 µM, 7x7, partner max 1 µM) | 0.15 | 0.207 | 0.271 | 0.179 | 0.187 | 0.378 | 0.271 | 0.211 | 0.183 | 0.376 | 0.214 | 0.368 | 0.317 | 0.237 | 0.186 | 0.192 | 0.255 | 0.311 | 0.37 | 0.504
10 | Cc1cc2ncnn2cc1Nc1ncc2c(n1)n(C1CCOCC1)c(=O)n2C [AZD7648] + C[C@@H]1COCCN1C2=NC(=NC(=C2)C3(CC3)[S@](=N)(=O)C)C4=C5C=CNC5=NC=C4 [AZD6738] (first compound max 10 µM, 7x7, partner max 10 µM) | 0.903 | 0.31 | 0.304 | 0.663 | 0.42 | 0.494 | 0.378 | 0.728 | 0.992 | 0.811 | 0.938 | 0.911 | 0.809 | 0.713 | 0.15 | 0.306 | 0.767 | 0.63 | 0.601 | 0.515
11 | Cc1cc2ncnn2cc1Nc1ncc2c(n1)n(C1CCOCC1)c(=O)n2C [AZD7648] + O=C(c1cc(Cc2n[nH]c(=O)c3ccccc23)ccc1F)N1CCN(C(=O)C2CC2)CC1 [Olaparib] (first compound max 10 µM, 7x7, partner max 10 µM) | 0.35 | 0.18 | 0.149 | 0.239 | 0.188 | 0.164 | 0.339 | 0.299 | 0.831 | 0.364 | 0.207 | 0.31 | 0.723 | 0.231 | 0.0535 | 0.0842 | 0.144 | 0.28 | 0.222 | 0.263
12 | COc1cccc2c1C(=O)c1c(O)c3c(c(O)c1C2=O)C[C@@](O)(C(=O)CO)C[C@@H]3O[C@H]1C[C@H](N)[C@H](O)[C@H](C)O1 [Doxorubicin] + Cc1cc2ncnn2cc1Nc1ncc2c(n1)n(C1CCOCC1)c(=O)n2C [AZD7648] (first compound max 1 µM, 7x7, partner max 10 µM) | 0.986 | 0.405 | 0.802 | 0.406 | 0.534 | 0.616 | 0.791 | 0.799 | 1 | 0.975 | 0.992 | 0.911 | 0.978 | 0.455 | 0.431 | 0.588 | 0.602 | 0.546 | 0.573 | 0.568
13 | COc1cccc(OCCCN)c1-c1cc(Nc2cnc(C#N)cn2)n[nH]1 [Prexasertib] + C=CCn1c(=O)c2cnc(Nc3ccc(N4CCN(C)CC4)cc3)nc2n1-c1cccc(C(C)(C)O)n1 [AZD1775] (first compound max 1 µM, partner max 1 µM) | 1 | 0.384 | 0.393 | 0.784 | 0.569 | 0.666 | 0.898 | 1 | 1 | 0.98 | 1 | 1 | 1 | 0.853 | 0.48 | 0.331 | 0.834 | 0.676 | 0.603 | 0.584
